Data: ChEMBL document CHEMBL5291721, “A preclinical secondary pharmacology resource illuminates target-adverse drug reaction associations of marketed drugs” (Nat Commun, 2023)
Values belong to the compound of their own block, whether it stands above or below them.

Key:
D(1B) dopamine receptor = D(1B) dopamine receptor (Homo sapiens, UniProt P21918)
[1] = target: Rod cGMP-specific 3',5'-cyclic phosphodiesterase subunit alpha (Homo sapiens, UniProt P16499); assay type: functional
[2] = target: 5-hydroxytryptamine receptor 5A (Homo sapiens, UniProt P47898)
[3] = target: Receptor tyrosine-protein kinase erbB-2 (Homo sapiens, UniProt P04626); assay type: functional
Acetylcholinesterase = Acetylcholinesterase (Homo sapiens, UniProt P22303); assay type: functional
D(1A) dopamine receptor [4] = target: T1, D(1A) dopamine receptor (Homo sapiens, UniProt P21728); assay type: functional, cell-based
[5] = target: T2, Alpha-1A adrenergic receptor (Homo sapiens, UniProt P35348)
T2 sequence (P35348 whole entry): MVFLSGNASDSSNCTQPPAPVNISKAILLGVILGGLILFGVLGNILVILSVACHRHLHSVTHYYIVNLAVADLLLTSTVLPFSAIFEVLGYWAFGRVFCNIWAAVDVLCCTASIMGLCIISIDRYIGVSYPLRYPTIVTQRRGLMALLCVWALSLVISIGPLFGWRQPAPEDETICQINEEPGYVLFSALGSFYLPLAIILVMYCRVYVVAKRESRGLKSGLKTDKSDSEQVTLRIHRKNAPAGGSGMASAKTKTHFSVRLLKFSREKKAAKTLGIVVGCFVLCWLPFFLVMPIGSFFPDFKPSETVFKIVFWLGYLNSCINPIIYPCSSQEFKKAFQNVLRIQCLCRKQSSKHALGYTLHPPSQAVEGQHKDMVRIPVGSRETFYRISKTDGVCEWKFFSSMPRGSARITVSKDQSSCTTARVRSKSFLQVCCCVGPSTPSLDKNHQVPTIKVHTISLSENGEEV

D(1A) dopamine receptor [6] = target: T1, D(1A) dopamine receptor
[7] = target: T3, Prostaglandin G/H synthase 1 (Rattus norvegicus, UniProt Q63921); assay type: functional
T3 sequence (Q63921 whole entry): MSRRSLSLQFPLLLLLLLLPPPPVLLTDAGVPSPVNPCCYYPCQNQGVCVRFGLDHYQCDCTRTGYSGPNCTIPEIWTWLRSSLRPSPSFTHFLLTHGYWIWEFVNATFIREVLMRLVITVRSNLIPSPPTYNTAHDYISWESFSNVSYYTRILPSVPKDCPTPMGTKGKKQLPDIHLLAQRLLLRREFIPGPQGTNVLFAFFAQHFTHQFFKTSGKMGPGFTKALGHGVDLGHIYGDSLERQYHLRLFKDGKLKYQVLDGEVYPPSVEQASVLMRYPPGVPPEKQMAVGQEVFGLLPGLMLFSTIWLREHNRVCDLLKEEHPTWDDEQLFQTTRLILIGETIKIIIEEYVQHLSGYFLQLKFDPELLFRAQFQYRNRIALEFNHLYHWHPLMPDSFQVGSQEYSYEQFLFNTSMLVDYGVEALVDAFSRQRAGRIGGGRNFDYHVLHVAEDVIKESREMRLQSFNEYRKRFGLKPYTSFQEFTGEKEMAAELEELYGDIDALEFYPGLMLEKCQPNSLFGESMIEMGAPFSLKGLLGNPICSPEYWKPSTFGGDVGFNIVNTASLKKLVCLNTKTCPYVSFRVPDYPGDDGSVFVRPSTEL

[8] = target: T4, Type-1 angiotensin II receptor (Homo sapiens, UniProt P30556)
T4 sequence (P30556 whole entry): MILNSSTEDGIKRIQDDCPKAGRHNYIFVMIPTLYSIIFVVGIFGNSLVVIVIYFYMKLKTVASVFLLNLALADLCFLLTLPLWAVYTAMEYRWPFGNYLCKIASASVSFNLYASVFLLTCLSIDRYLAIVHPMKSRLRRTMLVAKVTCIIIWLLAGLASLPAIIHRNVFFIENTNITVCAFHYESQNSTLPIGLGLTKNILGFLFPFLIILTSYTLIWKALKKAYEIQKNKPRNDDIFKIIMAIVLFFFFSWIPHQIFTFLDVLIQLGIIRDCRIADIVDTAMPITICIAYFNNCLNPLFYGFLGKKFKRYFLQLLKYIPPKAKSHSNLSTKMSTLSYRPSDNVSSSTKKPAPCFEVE

[9] = target: T5, Peroxisome proliferator-activated receptor alpha (Homo sapiens, UniProt Q07869); assay type: functional
T5 sequence (Q07869 whole entry): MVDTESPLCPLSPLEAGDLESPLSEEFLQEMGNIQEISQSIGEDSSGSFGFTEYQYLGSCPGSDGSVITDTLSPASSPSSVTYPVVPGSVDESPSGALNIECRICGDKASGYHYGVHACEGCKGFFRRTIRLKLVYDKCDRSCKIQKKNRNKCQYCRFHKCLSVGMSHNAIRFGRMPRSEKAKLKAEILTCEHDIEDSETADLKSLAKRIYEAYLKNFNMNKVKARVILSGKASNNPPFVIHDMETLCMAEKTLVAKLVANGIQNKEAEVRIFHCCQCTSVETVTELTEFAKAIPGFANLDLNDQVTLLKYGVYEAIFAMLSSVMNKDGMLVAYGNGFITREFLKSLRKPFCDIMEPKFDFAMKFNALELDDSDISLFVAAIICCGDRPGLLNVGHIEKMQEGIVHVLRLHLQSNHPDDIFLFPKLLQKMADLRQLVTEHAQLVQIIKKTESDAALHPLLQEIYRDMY

[10] = target: T5, Peroxisome proliferator-activated receptor alpha; assay type: functional; remark: listed apart in the source
[11] = target: T6, Nuclear receptor subfamily 1 group I member 3 (Homo sapiens, UniProt Q14994); assay type: functional
T6 sequence (Q14994 whole entry): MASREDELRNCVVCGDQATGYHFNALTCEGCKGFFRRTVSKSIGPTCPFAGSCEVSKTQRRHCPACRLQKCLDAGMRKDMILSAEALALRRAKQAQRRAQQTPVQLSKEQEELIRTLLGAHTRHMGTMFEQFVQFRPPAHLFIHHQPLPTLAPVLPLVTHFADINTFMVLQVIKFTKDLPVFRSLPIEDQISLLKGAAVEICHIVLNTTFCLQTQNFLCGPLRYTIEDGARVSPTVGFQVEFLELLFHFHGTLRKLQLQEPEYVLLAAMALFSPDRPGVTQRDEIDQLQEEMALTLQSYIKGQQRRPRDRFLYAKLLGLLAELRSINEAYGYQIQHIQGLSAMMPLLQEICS
Note: assay procedure not described here.

Chain of Rod cGMP-specific 3',5'-cyclic phosphodiesterase subunit alpha (P16499 whole entry): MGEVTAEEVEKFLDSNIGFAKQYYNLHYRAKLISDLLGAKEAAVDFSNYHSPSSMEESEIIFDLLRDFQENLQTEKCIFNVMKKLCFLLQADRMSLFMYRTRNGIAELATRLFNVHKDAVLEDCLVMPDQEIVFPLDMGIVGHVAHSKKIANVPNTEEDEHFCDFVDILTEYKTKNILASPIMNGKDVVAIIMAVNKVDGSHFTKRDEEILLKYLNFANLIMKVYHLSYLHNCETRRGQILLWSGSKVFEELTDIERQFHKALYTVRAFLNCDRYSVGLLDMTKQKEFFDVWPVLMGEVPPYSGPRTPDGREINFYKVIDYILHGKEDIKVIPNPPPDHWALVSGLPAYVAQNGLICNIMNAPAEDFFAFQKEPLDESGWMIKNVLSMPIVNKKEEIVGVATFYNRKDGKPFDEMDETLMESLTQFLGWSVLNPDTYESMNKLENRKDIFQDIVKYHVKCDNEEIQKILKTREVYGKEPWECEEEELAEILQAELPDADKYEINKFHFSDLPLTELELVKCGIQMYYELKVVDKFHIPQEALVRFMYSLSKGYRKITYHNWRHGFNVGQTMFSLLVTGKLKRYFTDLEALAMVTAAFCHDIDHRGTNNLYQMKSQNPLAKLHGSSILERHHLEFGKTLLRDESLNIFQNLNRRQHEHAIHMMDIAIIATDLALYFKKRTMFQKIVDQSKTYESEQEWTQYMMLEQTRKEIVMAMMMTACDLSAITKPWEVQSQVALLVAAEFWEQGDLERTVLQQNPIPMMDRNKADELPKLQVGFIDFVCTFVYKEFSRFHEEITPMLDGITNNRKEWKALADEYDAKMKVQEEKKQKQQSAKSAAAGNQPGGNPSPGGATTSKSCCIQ
Chain of Acetylcholinesterase (P22303 whole entry): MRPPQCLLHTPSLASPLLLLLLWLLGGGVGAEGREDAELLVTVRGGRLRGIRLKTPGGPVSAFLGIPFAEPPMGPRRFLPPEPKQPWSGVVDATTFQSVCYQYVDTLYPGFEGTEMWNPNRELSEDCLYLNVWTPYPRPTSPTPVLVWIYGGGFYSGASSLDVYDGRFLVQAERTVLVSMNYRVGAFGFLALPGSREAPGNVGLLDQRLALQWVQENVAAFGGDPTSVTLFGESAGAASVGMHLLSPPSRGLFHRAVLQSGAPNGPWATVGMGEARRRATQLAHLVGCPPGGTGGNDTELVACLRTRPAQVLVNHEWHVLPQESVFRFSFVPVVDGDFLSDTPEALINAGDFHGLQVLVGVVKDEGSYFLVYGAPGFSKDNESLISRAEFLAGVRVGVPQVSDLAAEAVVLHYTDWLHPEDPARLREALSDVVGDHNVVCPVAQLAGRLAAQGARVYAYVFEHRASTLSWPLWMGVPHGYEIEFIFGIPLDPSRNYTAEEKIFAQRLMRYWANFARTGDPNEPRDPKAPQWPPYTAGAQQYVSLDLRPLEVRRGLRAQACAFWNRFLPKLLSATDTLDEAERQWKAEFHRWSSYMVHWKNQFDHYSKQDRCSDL
T1 sequence (P21728 whole entry): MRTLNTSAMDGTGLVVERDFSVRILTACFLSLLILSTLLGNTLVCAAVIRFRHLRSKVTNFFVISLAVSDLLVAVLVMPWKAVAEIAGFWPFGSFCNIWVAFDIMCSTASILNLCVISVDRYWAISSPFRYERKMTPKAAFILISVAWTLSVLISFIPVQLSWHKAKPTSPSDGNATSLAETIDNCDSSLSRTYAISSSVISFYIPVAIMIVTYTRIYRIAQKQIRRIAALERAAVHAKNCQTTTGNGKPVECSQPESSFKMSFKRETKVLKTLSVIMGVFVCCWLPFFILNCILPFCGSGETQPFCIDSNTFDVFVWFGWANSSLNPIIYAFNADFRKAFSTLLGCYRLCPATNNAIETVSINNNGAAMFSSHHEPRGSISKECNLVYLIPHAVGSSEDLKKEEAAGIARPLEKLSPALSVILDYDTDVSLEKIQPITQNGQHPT
Chain of D(1B) dopamine receptor (P21918 whole entry): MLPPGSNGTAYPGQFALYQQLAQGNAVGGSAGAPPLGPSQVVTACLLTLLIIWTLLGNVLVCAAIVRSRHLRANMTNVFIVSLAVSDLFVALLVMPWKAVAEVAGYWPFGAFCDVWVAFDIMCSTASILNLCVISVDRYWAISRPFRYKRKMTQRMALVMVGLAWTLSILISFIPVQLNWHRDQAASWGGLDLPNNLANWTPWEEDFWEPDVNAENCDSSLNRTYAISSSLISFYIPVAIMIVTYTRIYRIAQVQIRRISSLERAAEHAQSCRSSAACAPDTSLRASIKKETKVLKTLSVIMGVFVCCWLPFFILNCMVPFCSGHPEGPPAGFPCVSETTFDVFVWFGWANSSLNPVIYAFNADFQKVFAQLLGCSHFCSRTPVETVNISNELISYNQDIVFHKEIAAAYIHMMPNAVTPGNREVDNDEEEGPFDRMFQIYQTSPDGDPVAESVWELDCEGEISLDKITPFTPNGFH
Chain of Receptor tyrosine-protein kinase erbB-2 (P04626 whole entry): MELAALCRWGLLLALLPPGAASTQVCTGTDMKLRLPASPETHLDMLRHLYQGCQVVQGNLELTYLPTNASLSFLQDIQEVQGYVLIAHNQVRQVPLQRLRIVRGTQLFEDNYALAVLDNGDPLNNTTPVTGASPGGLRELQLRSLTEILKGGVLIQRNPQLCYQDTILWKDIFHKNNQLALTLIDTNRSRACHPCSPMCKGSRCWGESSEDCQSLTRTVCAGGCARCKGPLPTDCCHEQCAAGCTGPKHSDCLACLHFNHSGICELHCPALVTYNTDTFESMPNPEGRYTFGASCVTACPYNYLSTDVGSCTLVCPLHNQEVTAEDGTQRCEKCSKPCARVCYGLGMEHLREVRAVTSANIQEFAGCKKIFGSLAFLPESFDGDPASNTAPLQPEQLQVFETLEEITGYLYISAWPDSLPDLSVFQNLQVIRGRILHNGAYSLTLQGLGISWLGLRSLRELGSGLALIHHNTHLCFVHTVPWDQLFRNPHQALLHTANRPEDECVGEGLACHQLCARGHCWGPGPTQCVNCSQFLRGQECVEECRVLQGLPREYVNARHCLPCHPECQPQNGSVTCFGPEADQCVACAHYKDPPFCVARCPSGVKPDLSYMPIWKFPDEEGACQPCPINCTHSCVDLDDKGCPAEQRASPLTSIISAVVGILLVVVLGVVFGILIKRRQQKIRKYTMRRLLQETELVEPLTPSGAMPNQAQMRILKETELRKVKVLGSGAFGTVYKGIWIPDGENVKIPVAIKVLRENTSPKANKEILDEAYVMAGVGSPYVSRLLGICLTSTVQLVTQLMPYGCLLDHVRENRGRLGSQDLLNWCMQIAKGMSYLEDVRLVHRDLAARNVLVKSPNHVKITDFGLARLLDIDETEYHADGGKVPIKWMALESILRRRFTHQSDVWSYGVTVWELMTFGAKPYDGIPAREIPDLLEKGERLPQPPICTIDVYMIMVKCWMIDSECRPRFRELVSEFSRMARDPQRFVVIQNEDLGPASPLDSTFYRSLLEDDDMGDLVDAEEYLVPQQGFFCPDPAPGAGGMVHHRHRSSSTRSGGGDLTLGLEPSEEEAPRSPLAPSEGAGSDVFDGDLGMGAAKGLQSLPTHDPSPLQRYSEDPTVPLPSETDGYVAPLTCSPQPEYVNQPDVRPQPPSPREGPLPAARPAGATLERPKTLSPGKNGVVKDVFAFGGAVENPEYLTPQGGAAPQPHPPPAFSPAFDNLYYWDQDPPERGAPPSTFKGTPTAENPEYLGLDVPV
Chain of 5-hydroxytryptamine receptor 5A (P47898 whole entry): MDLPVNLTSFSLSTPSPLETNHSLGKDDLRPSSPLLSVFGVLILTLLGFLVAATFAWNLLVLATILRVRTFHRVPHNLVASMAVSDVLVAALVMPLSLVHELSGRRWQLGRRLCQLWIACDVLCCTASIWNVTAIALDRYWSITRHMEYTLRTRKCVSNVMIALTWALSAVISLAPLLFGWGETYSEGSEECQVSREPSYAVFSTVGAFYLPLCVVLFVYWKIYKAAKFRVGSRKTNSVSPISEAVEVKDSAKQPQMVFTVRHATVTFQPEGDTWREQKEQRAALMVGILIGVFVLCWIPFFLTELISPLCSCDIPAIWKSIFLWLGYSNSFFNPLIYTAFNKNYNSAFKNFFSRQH

AC50 (D(1B) dopamine receptor): > 10 µM
AC50 [1]: > 10 µM
AC50 [2]: > 10 µM
Structure (SMILES): CCOC(=O)[C@H](CCc1ccccc1)N[C@@H](C)C(=O)N1CCC[C@H]1C(=O)O

Structure (SMILES): CC(C)Cc1ccc(CC(=O)O)cc1 [IBUFENAC]
AC50 [3]: > 30 µM
AC50 (Acetylcholinesterase): > 30 µM
AC50 (D(1A) dopamine receptor [4]): > 30 µM

AC50 (D(1A) dopamine receptor [4]): 1.11 µM
Structure (SMILES): CC(=O)c1ccc2c(c1)N(CCCN1CCN(CCO)CC1)c1ccccc1S2 [ACETOPHENAZINE]

AC50 (D(1B) dopamine receptor): > 10 µM
AC50 [1]: > 10 µM
AC50 [2]: > 10 µM
Structure (SMILES): NC(N)=Nc1nc(CSCCC(N)=NS(N)(=O)=O)cs1 [FAMOTIDINE]

Structure (SMILES): Cc1cc2c(cc1CC(=O)c1sccc1S(=O)(=O)Nc1onc(C)c1Cl)OCO2 [SITAXENTAN]
AC50 [5]: > 30 µM
AC50 (D(1A) dopamine receptor [6]): > 30 µM

Structure (SMILES): OC[C@@H](O)[C@@H](O)[C@H](O)[C@H](O)CO [MANNITOL]
AC50 [5]: > 30 µM
AC50 (D(1A) dopamine receptor [6]): > 30 µM

AC50 (D(1B) dopamine receptor): > 10 µM
AC50 [1]: > 10 µM
AC50 [2]: > 10 µM
Structure (SMILES): NS(=O)(=O)c1cc2c(cc1Cl)NCNS2(=O)=O [HYDROCHLOROTHIAZIDE]

Structure (SMILES): CC(C)NNC(=O)c1ccncc1 [IPRONIAZID]
AC50 [3]: > 30 µM
AC50 (Acetylcholinesterase): > 30 µM
AC50 (D(1A) dopamine receptor [4]): > 30 µM

Structure (SMILES): CO/N=C(\C(=O)N[C@@H]1C(=O)N2C(C(=O)[O-])=C(C[N+]3(C)CCCC3)CS[C@H]12)c1csc(N)n1
AC50 [3]: > 300 µM
AC50 (Acetylcholinesterase): > 300 µM
AC50 (D(1A) dopamine receptor [4]): > 300 µM

Structure (SMILES): COC(=O)[C@@H]1CC2=CC(=O)CC[C@]2(C)[C@@]23O[C@@H]2C[C@@]2(C)[C@@H](CC[C@@]24CCC(=O)O4)[C@H]13 [EPLERENONE]
AC50 [3]: > 30 µM
AC50 [7]: > 30 µM
AC50 (Acetylcholinesterase): > 30 µM
AC50 (D(1A) dopamine receptor [4]): > 30 µM

AC50 [8]: > 100 µM
Structure (SMILES): CN1CCCC(n2nc(Cc3ccc(Cl)cc3)c3ccccc3c2=O)CC1 (stereo not drawn) [AZELASTINE]

Structure (SMILES): C#C[C@]1(O)CC[C@H]2[C@@H]3CCc4cc(O)ccc4[C@H]3CC[C@@]21C [ETHINYL ESTRADIOL]
AC50 [9]: > 30 µM
AC50 [2]: > 30 µM
AC50 [10]: > 30 µM

Structure (SMILES): Nc1nc(N)c2nc(-c3ccccc3)c(N)nc2n1
AC50 (D(1B) dopamine receptor): > 10 µM
AC50 [1]: > 10 µM
AC50 [2]: > 10 µM

Structure (SMILES): CC(=O)OCC(=O)[C@@]1(O)CC[C@H]2[C@@H]3CCC4=CC(=O)CC[C@]4(C)[C@H]3C(=O)C[C@@]21C [CORTISONE ACETATE]
AC50 [5]: > 30 µM

AC50 [11]: 4.8 µM
AC50 [9]: > 30 µM
AC50 [10]: > 30 µM
Structure (SMILES): COc1ccc2c(c1)C(=O)N(CCc1ccc(S(=O)(=O)NC(=O)NC3CCCCC3)cc1)C(=O)C2(C)C [GLIQUIDONE]

AC50 [11]: 13 µM
Structure (SMILES): Cc1ccc(C(=O)c2cc(O)c(O)c([N+](=O)[O-])c2)cc1 [TOLCAPONE]

Structure (SMILES): O=C(NC[C@H]1CN(c2ccc(N3CCOCC3=O)cc2)C(=O)O1)c1ccc(Cl)s1 [RIVAROXABAN]
AC50 [9]: > 30 µM
AC50 [10]: > 30 µM

Structure (SMILES): CCC(=O)O[C@H]1[C@H](O[C@@H]2[C@@H](C)[C@H](O[C@H]3C[C@@](C)(OC)[C@@H](O)[C@H](C)O3)[C@@H](C)C(=O)O[C@H](CC)[C@@](C)(O)[C@H](O)[C@@H](C)C(=O)[C@H](C)C[C@@]2(C)O)O[C@H](C)C[C@@H]1N(C)C [ERYTHROMYCIN PROPIONATE]
AC50 [5]: > 30 µM
AC50 (D(1A) dopamine receptor [6]): 17 µM
